The source of these data is US7772156B2, “Microbicidal compositions including a cyanodithiocarbimate and a second microbicide, and methods of using the same” (Buckman Laboratories International, Inc., priority 2006, dated 2010).

The structures appear in SMILES notation. Where “and” joins values, the source holds several entries; their conditions need not be identical. Equal entries are not always repeated.

The test system of one data set is Aspergillus niger. The experiment in a line: Fungal evaluation: growth prevention of Aspergillus niger in mineral salts-glucose medium, synergism by the method of Kull. The class given is cell-based. To be noted: for X (QA/Qa+QB/Qb), Test 1 / X (QA/Qa+QB/Qb), Test 2 / X (QA/Qa+QB/Qb), Test 3: combination of S-chloromethyl-S'-hexylcyanodithioimidocarbimate (A) with the named second microbicide (B), Aspergillus niger, 7 days, 25° C., X<1 synergistic, X=1 additive, X>1 antagonistic; for QA = lowest concentration of compound A in the mixture which produced an end point: compound A in mixture with the named compound B; for Qb = lowest concentration of compound B acting alone which produced an end point: named compound B alone; for QB = lowest concentration of compound B in the mixture which produced an end point: named compound B in mixture with compound A. The method, then:
Mineral salts-glucose medium was used. To prepare the medium, the following ingredients were added to 1 liter of deionized water: 0.7 g of KH2PO4; 0.7 g of MgSO4·7H2O; 1.0 g of HN4NO3; 0.005 g of NaCl; 0.002 g of FeSO4·7H2O; 0.002 g ZnSO4·7H2O; 0.001 g of MnSO4·7H2O; 10 g of Glucose. The pH of the medium was adjusted to 6 with 1N NaOH. The medium was distributed in 5 ml amounts in test tubes and autoclaved at 121° C. for 20 minutes. The fungus, Aspergillus niger, was grown on potato dextrose agar slant for 5 to 10 days and a spore suspension prepared by washing down the spores from the slant into a sterile saline solution. After addition of the biocides in the desired concentrations in the sterile mineral salts-glucose medium, the fungal spore suspension was added. The final spore concentration was approximately 10^6 cfu/ml. The inoculated media was incubated at 25° C. for 7 days. The experimental design is termed a […] in which each test concentration of compound A is combined with each test concentration of compound B.
End points for the various mixtures were then compared with the end points for the pure active ingredients alone in concomitantly prepared flasks or test tubes.
When the sum of QA/Qa and QB/Qb is greater than one, antagonism is indicated. When the sum is equal to one, additivity is indicated. When the sum is less than one, synergism exists.
For: X<1 A and B are synergistic • X=1 A and B are additive • X>1 A and B are antagonistic For combinations of cyanodithiocarbimate with the selected second microbicide, the calculated values of X in each case are: […]

For data set [1] the following is noted: cited from earlier work.
[2] abbreviates: complete prevention of growth of Aspergillus niger for seven days.

Consider `CCCCCCCCn1sc(Cl)c(Cl)c1=O` [4,5-dichloro-2-N-octyl-4-isothiazolin-3-one], for which, in the data set with Aspergillus niger, the “X (QA/Qa+QB/Qb), Test 1” value stood at 0.7 and the “X (QA/Qa+QB/Qb), Test 2” value amounted to 0.5. Further, in the data set with Aspergillus niger (setting [2]), the “QA = lowest concentration of compound A in the mixture which produced an end point” value (shortened to “QA = lowest concentration”) stood at 0.05 ppm active ingredient, the “Qb = lowest concentration of compound B acting alone which produced an end point” value worked out at 0.2 ppm active ingredient and the “QB = lowest concentration of compound B in the mixture which produced an end point” value is reported as 0.1 ppm active ingredient.

As to `O=C(CBr)c1ccc(O)cc1` [BHAP, 2-bromo-4′-hydroxyacetophenone], in the data set with Aspergillus niger, the “X (QA/Qa+QB/Qb), Test 1” value came out at 1.22; the “X (QA/Qa+QB/Qb), Test 2” value was 1.0; the “X (QA/Qa+QB/Qb), Test 3” value came out at 0.8. Further, in the data set with Aspergillus niger (setting [2]), the “QA = lowest concentration” value was 0.3 ppm active ingredient, the “Qb = lowest concentration of compound B acting alone which produced an end point” value is given as more than 8.0 ppm active ingredient and the “QB = lowest concentration of compound B in the mixture which produced an end point” value worked out at 1.0 ppm active ingredient.

`N#CSCSC#N` [MTC, Methylene-bis(thiocyanate)]: in the data set on Aspergillus niger, the “X (QA/Qa+QB/Qb), Test 1” value was 0.64; the “X (QA/Qa+QB/Qb), Test 2” value is given as 0.46; the “X (QA/Qa+QB/Qb), Test 3” value is 0.29. Also, in the data set with Aspergillus niger (setting [2]), the “QA = lowest concentration” value turned out to be 0.05 ppm active ingredient, the “Qb = lowest concentration of compound B acting alone which produced an end point” value was more than 0.7 ppm active ingredient and the “QB = lowest concentration of compound B in the mixture which produced an end point” value came out at 0.1 ppm active ingredient.

`CCCCCCSC(=NC#N)SCCl` [Compound A, S-Hexyl-S′-chloromethylcyanodithiocarbimate]: in the data set with Aspergillus niger (compound A alone, run concomitantly with the compound B, complete prevention of growth of Aspergillus niger for seven days), the “Qa = concentration of compound A acting alone which produced an end point” value is 0.3 ppm active ingredient and 0.25 ppm active ingredient and 0.175 ppm active ingredient and 0.35 ppm active ingredient and 0.2 ppm active ingredient.

As for `CCCCNC(=O)OCC#CI` [IPBC, 3-iodo-2-propynyl butyl carbamate], in the data set with Aspergillus niger, the “X (QA/Qa+QB/Qb), Test 1” value is on record as 0.86 and the “X (QA/Qa+QB/Qb), Test 2” value worked out at 0.3. In addition, in the data set on Aspergillus niger (setting [2]), the “QA = lowest concentration” value is recorded as 0.025 ppm active ingredient, the “Qb = lowest concentration of compound B acting alone which produced an end point” value came to 0.35 ppm active ingredient and the “QB = lowest concentration of compound B in the mixture which produced an end point” value is on record as 0.05 ppm active ingredient.

For the compound `N#CSCSc1nc2ccccc2s1` [TCMTB, 2-(Thiocyanomethylthio)benzothiazole], in the data set with Aspergillus niger, the “X (QA/Qa+QB/Qb), Test 1” value was 0.27; the “X (QA/Qa+QB/Qb), Test 2” value worked out at 0.25; the “X (QA/Qa+QB/Qb), Test 3” value worked out at 0.7. Further, in the data set with Aspergillus niger (setting [2]), the “QA = lowest concentration” value is recorded as 0.15 ppm active ingredient, the “Qb = lowest concentration of compound B acting alone which produced an end point” value is 1.0 ppm active ingredient and the “QB = lowest concentration of compound B in the mixture which produced an end point” value is listed as 0.05 ppm active ingredient.

As to `O=C(CBr)OC/C=C\COC(=O)CBr` [BBAB, 1,4-bis(bromoacetoxy)-2-butene], in data set [1], the solubility in water entry is “extremely low”.

Take `CCCCCCCCn1sccc1=O` [2-N-octyl-4-isothiazolin-3-one]: the “X (QA/Qa+QB/Qb), Test 1” value in the data set on Aspergillus niger worked out at 0.64. In the data set on Aspergillus niger (setting [2]), the “QA = lowest concentration” value is 0.1 ppm active ingredient, the “Qb = lowest concentration of compound B acting alone which produced an end point” value was more than 0.175 ppm active ingredient and the “QB = lowest concentration of compound B in the mixture which produced an end point” value turned out to be 0.025 ppm active ingredient.
